Data: patent publication US6645917B2, “Composition for hybrid seed production, process for the preparation of such composition and use thereof” (Council of Scientific and Industrial Research, priority 2002, dated 2003)
Where two headings read alike, the source gives them in different places.

Experiments:
[1] = system: wheat plants; experiment: Spray of chemicals in combinations and as individual molecules on wheat plants (Table 3); format: in vivo
Experimental: The effects of the composition with varied concentration of compound 1 and 2 were evaluated for two crops years. The aqueous solution of the compositions were sprayed on the wheat plants when the Spike length of 7-12 mm. i.e. growth of 20-22 of Zadoks scale, reached between 40-50 days after germination.
In a future of the present invention the calculation of male/female sterility is based on number of seeds and is done as per formula given below:
Male Sterility (%)=(Untreated Control−Bagged Spikes×100/Untreated Control
Female Sterility (%)=(Untreated Control−Bagged Spikes)×100/Untreated Control
The chemical formulation can be used at a rate of 1.8 kg/ha or below (following male: female ratio of 1:2) depending upon genotypes used, date of planting and growth stage. The female lines were sprayed with the chemical combination at the appropriate growth stage and concentration. The spike of 7-12 mm i.e. growth stage 20-22 of Zadoks scale (Zadoks J V, Chang T T and Konzak C F 1974. Weed Research 14: 415421) was ideal for generating effective male sterility in spring wheat. This stage is reached between 40-50 days after germination at optimum time of sowing in most of the genotypes. The date of spray varied depending upon the genotype used. A high volume spray pump may be used so as to cover the complete female plant.

[2] = system: wheat; set-up: Effective dose: unit not given beside the values; conditions: cited from earlier work; for Female sterility / Germination (%) / Max. seed shriveling (Scale 1-5) / Seed setting: at effective dose; for Female sterility / Germination (%) / Max. seed shriveling (Scale 1-5) / Seed setting / Effective dose: 7-8 mm spike length; for Effective dose: minimum effective dose for complete male sterility
[3] = system: wheat; conditions: cited from earlier work
[4] = at minimum effective dose for complete male sterility
[5] = wheat, side effects on plant and seed

Question: Which results are given for `Cc1cc(=O)c(C(=O)[O-])nn1-c1ccc(Cl)cc1.[K+]` [CH9701, potassium 1-[4-chlorophenyl]-1,4 dihydro-6-methyl-4-oxopyridazine-3-carboxylate]?
Answer: Female sterility [1]: high female sterility; damage to florets [1]: damage to florets; male sterility [1]: complete male sterility; seed set [1]: low seed set; female sterility (CH9701 compared with CH9832) [2, 4]: higher; seed germination (CH9701 compared with CH9832) [2, 4]: comparable; seed shriveling (CH9701 compared with CH9832) [2, 4]: higher; Female sterility ([2]; variety PBW343): 88.3; Germination (%) ([2]; variety PBW343): 95%; Max. seed shriveling (Scale 1-5) ([2]; variety PBW343): 3; Seed setting ([2]; variety PBW343): 20.0; Effective dose ([2]; variety PBW343): 500; Female sterility ([2]; variety WH542): 90.7; Germination (%) ([2]; variety WH542): 85%; Max. seed shriveling (Scale 1-5) ([2]; variety WH542): 2; Seed setting ([2]; variety WH542): 56.7; Effective dose ([2]; variety WH542): 250

Question: Which Female sterility [1] does the source give for `Cc1cc(=O)c(C(=O)[O-])nn1-c1ccc(F)c(Cl)c1.[K+]` [CH9832, potassium 1-[4-fluoro, 3-chlorophenyl]-1,4 dihydro6-methyl-4-oxopyridazine-3-carboxylate] here?
Answer: low female sterility

Question: What about the damage to florets [1] of the same molecule?
Answer: no damage to florets

Question: And the male sterility [1]?
Answer: complete male sterility

Question: What about the seed set [1] of the same molecule?
Answer: low seed set

Question: What about the “seed germination (CH9701 compared with CH9832)” value [2, 4] of the same molecule?
Answer: comparable

Question: And the “seed setting (CH9832 compared with CH9701)” value [2, 4]?
Answer: numerically higher

Question: And the Female sterility ([2]; variety PBW343)?
Answer: 40.2

Question: What about the “Germination (%)” value ([2]; variety PBW343) of the same molecule?
Answer: 90%

Question: What about the “Max. seed shriveling (Scale 1-5)” value ([2]; variety PBW343) of the same molecule?
Answer: 2

Question: What about the Seed setting ([2]; variety PBW343) of the same molecule?
Answer: 49.0

Question: What about the Effective dose ([2]; variety PBW343) of the same molecule?
Answer: 500

Question: And the Female sterility ([2]; variety WH542)?
Answer: 10.7

Question: What about the “Germination (%)” value ([2]; variety WH542) of the same molecule?
Answer: 65%

Question: What about the “Max. seed shriveling (Scale 1-5)” value ([2]; variety WH542) of the same molecule?
Answer: 2

Question: What about the Seed setting ([2]; variety WH542) of the same molecule?
Answer: 65.5

Question: What about the Effective dose ([2]; variety WH542) of the same molecule?
Answer: 500

Question: Which “Sterility (optimum treatment) Female” value ([3]; wheat, optimum treatment) does the source give for `COc1nc(=O)n(-c2ccc(Cl)cc2)c(=O)[nH]1.OCCN(CCO)CCO` [DPX 3778] here?
Answer: Sight

Question: What about the “Sterility (optimum treatment) Male” value ([3]; wheat, optimum treatment) of the same molecule?
Answer: High

Question: What about the Remarks [3, 5] of the same molecule?
Answer: Shorter plant, leaf

Question: Which “Sterility (optimum treatment) Female” value ([3]; wheat, optimum treatment) does the source give for `CC(Cl)(Cl)C(=O)O` [Dalapon] here?
Answer: Severe

Question: What about the “Sterility (optimum treatment) Male” value ([3]; wheat, optimum treatment) of the same molecule?
Answer: Partial

Question: What about the Remarks [3, 5] of the same molecule?
Answer: Severe plant damage

Question: For `O=P(O)(O)CCCl` [Ethephon], which “Sterility (optimum treatment) Female” value ([3]; wheat, optimum treatment) is on record?
Answer: Significant

Question: What about the “Sterility (optimum treatment) Male” value ([3]; wheat, optimum treatment) of the same molecule?
Answer: High

Question: And the Remarks [3, 5]?
Answer: Height and seed size

Question: For `C=C1C[C@]23C[C@@]1(O)CC[C@H]2[C@@]12C=C[C@H](O)[C@@](C)(C(=O)O1)[C@H]2[C@@H]3C(=O)O` [Gibberellic acid], which “Sterility (optimum treatment) Male” value ([3]; wheat, optimum treatment) is on record?
Answer: Poor

Question: What does the source list for `Cc1cc(=O)c(C(=O)[O-])nn1-c1ccc(Cl)cc1.[K+]` [Hybrex]?
Answer: Remarks ([3]; in vivo): Risk of damage; Sterility (optimum treatment) Female ([3]; in vivo): Slight; Sterility (optimum treatment) Male ([3]; wheat, optimum treatment): High

Question: What does the source list for `CC(Cl)(CCl)C(=O)[O-].[Na+]` (stereo not shown) [Mendok]?
Answer: Remarks ([3]; in vivo): Severe plant damage,; Sterility (optimum treatment) Female ([3]; in vivo): Significant; Sterility (optimum treatment) Male ([3]; wheat, optimum treatment): Poor

Question: For `Cc1cc(C)n(-c2ccc(Cl)cc2)c(=O)c1C(=O)[O-].[Na+]` [RH-531], which “Sterility (optimum treatment) Female” value ([3]; wheat, optimum treatment) is on record?
Answer: Significant

Question: What about the “Sterility (optimum treatment) Male” value ([3]; wheat, optimum treatment) of the same molecule?
Answer: High

Question: And the Remarks [3, 5]?
Answer: Inhibit veg. Growth

Question: Which “Sterility (optimum treatment) Female” value ([3]; wheat, optimum treatment) does the source give for `O=C(O)C1CNC1` [WL 84811] here?
Answer: Very

Question: What about the “Sterility (optimum treatment) Male” value ([3]; wheat, optimum treatment) of the same molecule?
Answer: Nearly

Question: What about the Remarks [3, 5] of the same molecule?
Answer: Toxic residues in F1
